Assay results published in patent US12630643B2, “CD40 binding protein, bispecific conjugate thereof and method of treating cancer” (priority 2020, dated 2026).

Columns and labels:
14GIIICII scFv = assay type: binding, mouse
IBIIICI scFv = assay type: binding, mouse
[1] = target: CD40 ligand interaction with CD40 (Homo sapiens, UniProt P25942); conditions: Yu et al. 2018; WO 2015/091853; cited from earlier work
CD40 on CD19+ cells = CD40 on CD19+ cells (Homo sapiens, UniProt P25942); test: Competitive binding with anti-CD40-FITC antibody 5C3, flow cytometry; conditions: 25 nM-50 nM antibody, 30 min on ice
canine (dog) CD40 = target: T1, canine (dog) CD40 (Canis lupus familiaris, UniProt Q7YRL5); conditions: stated in US2006-0093600; cited from earlier work
T1 sequence (Q7YRL5 21-274): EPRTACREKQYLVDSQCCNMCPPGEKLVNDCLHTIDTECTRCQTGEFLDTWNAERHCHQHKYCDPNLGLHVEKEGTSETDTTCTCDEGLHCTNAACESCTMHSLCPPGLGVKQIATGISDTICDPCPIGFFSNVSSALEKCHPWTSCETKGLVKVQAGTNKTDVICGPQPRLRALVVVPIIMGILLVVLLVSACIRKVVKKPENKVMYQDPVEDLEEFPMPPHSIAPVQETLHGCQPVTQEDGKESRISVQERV

Human CD40-avi = Human CD40-avi (Homo sapiens, UniProt P25942); test: SPR kinetic measurements (single cycle kinetics) on captured IgG2, hCD40-avi; conditions: 1:1 Langmuir binding model
Human CD40-Fc [2] = target: T2, Human CD40-Fc (Homo sapiens, UniProt P25942); test: SPR kinetic measurements (single cycle kinetics) on captured IgG2, hCD40-Fc; conditions: for ka / kd: Human CD40-Fc (dimer, avidity effects may contribute)
Target sequence in this assay (P25942 21-193): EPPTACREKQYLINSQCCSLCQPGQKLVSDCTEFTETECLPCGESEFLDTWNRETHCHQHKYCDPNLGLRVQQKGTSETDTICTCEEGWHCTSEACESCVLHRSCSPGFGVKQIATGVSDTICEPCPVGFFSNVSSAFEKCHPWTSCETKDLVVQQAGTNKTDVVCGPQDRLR

Cynomolgus CD40-Fc = test: SPR kinetic measurements (single cycle kinetics) on captured IgG2, cCD40-Fc; conditions: for ka / kd: Cynomolgus CD40-Fc (dimer, avidity effects may contribute)
Canine CD40-Fc = target: T3, Canine CD40-Fc (Canis lupus familiaris, UniProt Q7YRL5); test: SPR single cycle kinetics of Example 5, canine CD40-Fc; assay type: binding
T3 construct: purchased Sino Biological 70105-D02H
T3 sequence (Q7YRL5 21-193 limits assumed): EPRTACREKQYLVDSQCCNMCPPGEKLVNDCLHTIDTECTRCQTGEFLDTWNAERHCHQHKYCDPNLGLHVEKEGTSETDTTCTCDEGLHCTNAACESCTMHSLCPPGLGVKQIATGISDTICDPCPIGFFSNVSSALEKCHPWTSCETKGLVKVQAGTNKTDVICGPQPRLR

Human CD40-Fc [3] = target: T2, Human CD40-Fc; test: SPR single cycle kinetics of Example 5, human CD40-Fc; set-up: purchased Sino Biological 10774-H38H; conditions: 1:1 Binding
Target sequence in this assay (P25942 21-193 limits assumed): as the sequence (P25942 21-193) above

[4] = test system: human monocyte-derived dendritic cells; test: Internalisation of antibody into dendritic cells; conditions: 125 nM antibody
[5] = test system: human monocyte-derived DC (MoDC); test: MoDC activation, flow cytometry of surface activation markers (t-SNE); conditions: 125 nM antibody, 48 hours of stimulation

Sequence of Human CD40-avi (P25942 21-193): as the sequence (P25942 21-193) above
Sequence of CD40 ligand interaction with CD40 (P25942 21-277): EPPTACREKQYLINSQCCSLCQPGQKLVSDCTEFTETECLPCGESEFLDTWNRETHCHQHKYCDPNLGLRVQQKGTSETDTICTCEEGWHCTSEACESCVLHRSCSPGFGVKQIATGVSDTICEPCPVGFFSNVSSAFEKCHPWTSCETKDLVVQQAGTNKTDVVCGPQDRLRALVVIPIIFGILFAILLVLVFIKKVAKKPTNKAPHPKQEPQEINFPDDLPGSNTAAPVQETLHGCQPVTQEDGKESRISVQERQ
Sequence of CD40 on CD19+ cells (P25942 21-277): as above

## FIGITELKKLES [UU74]
14GIIICII scFv
  Kd: 1700 pM
  ka: 570000 M⁻¹ s⁻¹
  kd: 0.00095 s⁻¹
IBIIICI scFv
  Kd: 120 pM
  ka: 280000 M⁻¹ s⁻¹
  kd: 3.3e-05 s⁻¹

## FIGITELKKLESK [UU73]
14GIIICII scFv
  Kd: 870 pM
  ka: 510000 M⁻¹ s⁻¹
  kd: 0.00044 s⁻¹
IBIIICI scFv
  Kd: 340 pM
  ka: 200000 M⁻¹ s⁻¹
  kd: 6.7e-05 s⁻¹

## FIGITELKKLESKI [UU72]
14GIIICII scFv
  Kd: 600 pM
  ka: 570000 M⁻¹ s⁻¹
  kd: 0.00034 s⁻¹
IBIIICI scFv
  ka: 250000 M⁻¹ s⁻¹
  kd (1/s): * (key: *: too low for, or very close to the detection limit of, instrument specification (<10^−5))

## FIGITELKKLESKIN [UU71]
14GIIICII scFv
  Kd: 600 pM
  ka: 540000 M⁻¹ s⁻¹
  kd: 0.00032 s⁻¹
IBIIICI scFv
  ka: 230000 M⁻¹ s⁻¹
  kd (1/s): * (key: *: too low for, or very close to the detection limit of, instrument specification (<10^−5))

## FIGITELKKLESKINK [UU70]
14GIIICII scFv
  Kd: 290 pM
  ka: 650000 M⁻¹ s⁻¹
  kd: 0.00019 s⁻¹
IBIIICI scFv
  Kd: 160 pM
  ka: 230000 M⁻¹ s⁻¹
  kd: 3.7e-05 s⁻¹

## FIGITELKKLESKINKVF (SEQ ID NO: 25), C-term K-biotin; full length MTTE [UU24]
14GIIICII scFv
  Kd: 300 pM
  ka: 660000 M⁻¹ s⁻¹
  kd: 0.0002 s⁻¹
IBIIICI scFv
  Kd: 120 pM
  ka: 190000 M⁻¹ s⁻¹
  kd: 2.3e-05 s⁻¹

## X-SM083-ab-5: agonistic anti-CD40 antibody CP-870,893 (US 2017/0342159) as hIgG2
[1]
  competition with / blocking of CD40 ligand: without blocking CD40 ligand interaction
CD40 on CD19+ cells
  5C3-FITC staining after pre-incubation with antibody: loss of the FITC signal
Canine (dog) CD40
  binding to canine (dog) CD40: does not bind to canine (dog) CD40
Human CD40-avi
  Kd: 18000 pM
  ka: 62000 M⁻¹ s⁻¹
  kd: 0.0011 s⁻¹
Human CD40-Fc [2]
  ka: 66000 M⁻¹ s⁻¹
  kd: 3.2e-05 s⁻¹
Cynomolgus CD40-Fc
  ka: 91000 M⁻¹ s⁻¹
  kd: 2.5e-05 s⁻¹
Canine CD40-Fc; Canine CD40-Fc, 1:1 Binding
  Ka: 170000 M⁻¹ s⁻¹
  kd: 0.00041 s⁻¹
Canine CD40-Fc; canine vs human CD40-Fc
  affinity for canine CD40 lower than for the human orthologue: approximately 10 times
Canine CD40-Fc; in words
  binding to canine CD40: exhibited binding to canine CD40
Human CD40-Fc [3]
  kd: 3.6e-05 s⁻¹
Human CD40-Fc [3]; read-out: ^appKD
  Kd: 200 pM
Human CD40-Fc [3]; optimised follow-up experiment
  Ka: 190000 M⁻¹ s⁻¹

B1: X-SM083-ab-2: agonistic anti-CD40 antibody 1150/1151 (WO 2015/091853) as hIgG2 (antibody)
heavy: EVQLLESGGGLVQPGGSLRLSCAASGFTFSSYAMSWVRQAPGKGLEWVSGIGGSSSYTSYADSVKGRFTISRDNSKNTLYLQMNSLRAEDTAVYYCARYYSYHMDYWGQGTLVTVSSASTKGPSVFPLAPCSRSTSESTAALGCLVKDYFPEPVTVSWNSGALTSGVHTFPAVLQSSGLYSLSSVVTVPSSNFGTQTYTCNVDHKPSNTKVDKTVERKCCVECPPCPAPPVAGPSVFLFPPKPKDTLMISRTPEVTCVVVDVSHEDPEVQFNWYVDGVEVHNAKTKPREEQFNSTFRVVSVLTVVHQDWLNGKEYKCKVSNKGLPAPIEKTISKTKGQPREPQVYTLPPSREEMTKNQVSLTCLVKGFYPSDISVEWESNGQPENNYKTTPPMLDSDGSFFLYSKLTVDKSRWQQGNVFSCSVMHEALHNHYTQKSLSLSPGK
light: DIQMTQSPSSLSASVGDHVTITCRASQSISSYLNWYQQKPGKAPKLLIYAASSLQSGVPSRFSGSGSGTDFTLTISSLQPEDFATYYCQQYGSAPPTFGQGTKLEIK
modifications: left off: a dimerising Fc or GST
notes: agonistic anti-CD40 antibody 1150/1151 (WO 2015/091853) as hIgG2
[1]
  competition with / blocking of CD40 ligand: No competition between this antibody and CD40 ligand was observed
Human CD40-avi
  Kd: 180000 pM
  ka: 750000 M⁻¹ s⁻¹
  kd: 0.14 s⁻¹
Human CD40-Fc [2]
  ka: 320000 M⁻¹ s⁻¹
  kd: 0.0014 s⁻¹
Human CD40-Fc [2]; read-out: ^appKD, Human CD40-Fc, apparent affinity, 1:1 Langmuir model
  Kd: 4600 pM
Cynomolgus CD40-Fc
  ka: 490000 M⁻¹ s⁻¹
  kd: 0.0018 s⁻¹
Cynomolgus CD40-Fc; read-out: ^appKD, Cynomolgus CD40-Fc, apparent affinity, 1:1 Langmuir model
  Kd: 3800 pM
[4]; after 60 min at 37° C.
  internalisation: 50%
[4]; after 4 h incubation
  antibodies remained extracellular: Approximately 30%
[5]
  agonistic profile, t-SNE cluster of surface expression of CD14, CD1a, CD40, HLA-DR, CD86 and CD83: potent agonistic profile
